# From ChEMBL document CHEMBL2074517, “Bile acid inhibition of P-glycoprotein-mediated transport in multidrug-resistant cells and rat liver canalicular membrane vesicles” (Hepatology, 1994)
# Assays:
# Set-up in all cases: scale not given: the % may be the effect or the level left
# [1] = target: Multidrug resistance protein 1a (Rattus norvegicus) (UniProt Q6PSM0); experiment: TP_TRANSPORTER: inhibition of Daunomycin uptake (Daunorubicin: 10 uM, UDCA: 200 uM) in canalicular membrane vesicles from SD rat; assay type: functional, cell membranes; conditions: Sprague-Dawley, Canalicular membrane vesicle
# [2] = target: ATP-dependent translocase ABCB1 (Homo sapiens, UniProt P08183); experiment: TP_TRANSPORTER: inhibition of Rhodamine 123 efflux (R123: 5 ug/mL, TCDC: 200 uM) in P1(0.5) cells; assay type: functional, cell-based
# [3] = target: Multidrug resistance protein 1a (Rattus norvegicus) (UniProt Q6PSM0); experiment: TP_TRANSPORTER: inhibition of Daunomycin uptake (Daunorubicin: 10 uM, TCDC: 200 uM) in canalicular membrane vesicles from SD rat; assay type: functional, cell membranes; conditions: Sprague-Dawley, Canalicular membrane vesicle
# [4] = target: ATP-dependent translocase ABCB1 (P-glycoprotein) (Homo sapiens, UniProt P08183); experiment: TP_TRANSPORTER: inhibition of Rhodamine 123 efflux (R123: 5 ug/mL, TLCA: 200 uM) in P1(0.5) cells; assay type: functional, cell-based; conditions: probe Rhodamine 123, read-out: Activity
# [5] = target: Multidrug resistance protein 1a (Rattus norvegicus) (UniProt Q6PSM0); experiment: TP_TRANSPORTER: inhibition of Daunomycin uptake (Daunorubicin: 10 uM, TLCA: 200 uM) in canalicular membrane vesicles from SD rat; assay type: functional, cell membranes; conditions: Sprague-Dawley, Canalicular membrane vesicle
# Sequence of Multidrug resistance protein 1a (Rattus norvegicus) (Q6PSM0 as listed by the source): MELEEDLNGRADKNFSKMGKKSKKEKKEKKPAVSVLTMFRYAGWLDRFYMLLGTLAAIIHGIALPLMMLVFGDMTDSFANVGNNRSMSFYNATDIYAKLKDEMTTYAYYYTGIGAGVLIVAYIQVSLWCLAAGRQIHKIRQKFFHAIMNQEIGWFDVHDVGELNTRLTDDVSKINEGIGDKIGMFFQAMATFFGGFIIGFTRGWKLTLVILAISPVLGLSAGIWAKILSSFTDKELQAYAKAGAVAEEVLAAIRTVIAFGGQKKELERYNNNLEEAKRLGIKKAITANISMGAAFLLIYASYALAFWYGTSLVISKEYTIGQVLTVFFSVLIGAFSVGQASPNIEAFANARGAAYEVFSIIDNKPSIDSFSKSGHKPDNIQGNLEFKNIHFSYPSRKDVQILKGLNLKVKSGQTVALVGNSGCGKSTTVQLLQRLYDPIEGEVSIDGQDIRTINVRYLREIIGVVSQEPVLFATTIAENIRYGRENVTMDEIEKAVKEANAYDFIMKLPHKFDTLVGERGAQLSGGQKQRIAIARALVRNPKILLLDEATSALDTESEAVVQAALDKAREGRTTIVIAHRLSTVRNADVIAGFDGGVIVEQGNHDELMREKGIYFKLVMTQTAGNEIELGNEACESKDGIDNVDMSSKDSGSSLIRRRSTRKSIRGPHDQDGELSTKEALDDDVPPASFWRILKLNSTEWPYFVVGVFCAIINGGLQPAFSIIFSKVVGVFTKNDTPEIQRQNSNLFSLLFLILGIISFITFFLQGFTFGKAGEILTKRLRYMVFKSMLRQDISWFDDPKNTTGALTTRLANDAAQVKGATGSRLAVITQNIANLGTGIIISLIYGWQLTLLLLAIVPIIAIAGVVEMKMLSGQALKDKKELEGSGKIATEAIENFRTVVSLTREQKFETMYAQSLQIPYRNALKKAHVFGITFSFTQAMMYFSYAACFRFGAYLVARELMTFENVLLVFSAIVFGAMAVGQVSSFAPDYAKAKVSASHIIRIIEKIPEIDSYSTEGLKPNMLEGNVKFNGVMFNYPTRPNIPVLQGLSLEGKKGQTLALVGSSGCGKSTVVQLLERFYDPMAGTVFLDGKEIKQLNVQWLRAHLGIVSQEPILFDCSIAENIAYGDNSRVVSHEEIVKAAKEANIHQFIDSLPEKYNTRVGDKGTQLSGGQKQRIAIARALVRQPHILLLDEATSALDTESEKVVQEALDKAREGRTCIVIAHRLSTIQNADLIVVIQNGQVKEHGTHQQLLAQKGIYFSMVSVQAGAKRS
# Sequence of ATP-dependent translocase ABCB1 (P08183 whole entry): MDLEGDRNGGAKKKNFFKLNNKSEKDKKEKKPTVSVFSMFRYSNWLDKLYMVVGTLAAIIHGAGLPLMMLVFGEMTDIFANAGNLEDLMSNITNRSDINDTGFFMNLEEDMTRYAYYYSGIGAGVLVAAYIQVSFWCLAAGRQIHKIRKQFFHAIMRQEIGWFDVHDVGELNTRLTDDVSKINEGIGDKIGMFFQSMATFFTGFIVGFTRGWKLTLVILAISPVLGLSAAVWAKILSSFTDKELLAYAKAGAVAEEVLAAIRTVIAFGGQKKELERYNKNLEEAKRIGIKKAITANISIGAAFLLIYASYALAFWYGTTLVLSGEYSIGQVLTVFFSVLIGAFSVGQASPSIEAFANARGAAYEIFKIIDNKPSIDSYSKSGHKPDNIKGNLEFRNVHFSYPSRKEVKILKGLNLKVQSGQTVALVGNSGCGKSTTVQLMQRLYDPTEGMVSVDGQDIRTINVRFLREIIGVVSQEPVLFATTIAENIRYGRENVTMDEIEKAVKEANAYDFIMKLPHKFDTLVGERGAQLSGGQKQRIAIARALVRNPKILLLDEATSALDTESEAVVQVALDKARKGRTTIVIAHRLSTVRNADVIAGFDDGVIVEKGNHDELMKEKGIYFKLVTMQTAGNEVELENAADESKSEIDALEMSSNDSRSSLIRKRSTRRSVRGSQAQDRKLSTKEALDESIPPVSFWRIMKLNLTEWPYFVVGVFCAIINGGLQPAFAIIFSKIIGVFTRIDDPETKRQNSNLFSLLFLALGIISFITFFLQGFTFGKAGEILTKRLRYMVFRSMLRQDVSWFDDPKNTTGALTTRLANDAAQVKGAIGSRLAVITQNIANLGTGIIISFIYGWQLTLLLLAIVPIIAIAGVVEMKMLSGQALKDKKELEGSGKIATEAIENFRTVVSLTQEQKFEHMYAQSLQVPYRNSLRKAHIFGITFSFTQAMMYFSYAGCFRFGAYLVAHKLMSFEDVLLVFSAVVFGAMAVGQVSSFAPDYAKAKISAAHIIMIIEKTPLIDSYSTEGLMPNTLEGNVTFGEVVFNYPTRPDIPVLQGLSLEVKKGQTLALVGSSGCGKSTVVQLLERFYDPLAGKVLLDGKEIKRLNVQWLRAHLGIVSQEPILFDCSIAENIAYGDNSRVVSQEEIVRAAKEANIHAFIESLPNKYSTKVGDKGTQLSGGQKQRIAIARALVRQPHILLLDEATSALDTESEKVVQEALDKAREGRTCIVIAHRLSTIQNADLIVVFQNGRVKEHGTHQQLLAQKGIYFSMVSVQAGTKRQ
# Sequence of ATP-dependent translocase ABCB1 (P-glycoprotein) (P08183 whole entry): as above
structure (smiles),measurement,setting,value
C[C@H](CCC(=O)O)[C@H]1CC[C@H]2[C@@H]3[C@@H](O)C[C@@H]4C[C@H](O)CC[C@]4(C)[C@H]3CC[C@]12C,Activity,[1],39%
C[C@H](CCC(=O)NCCS(=O)(=O)O)[C@H]1CC[C@H]2[C@@H]3[C@H](O)C[C@@H]4C[C@H](O)CC[C@]4(C)[C@H]3CC[C@]12C [TAUROCHENODEOXYCHOLATE],Activity,[2],66%
same,Activity,[3],33%
C[C@H](CCC(=O)NCCS(=O)(=O)O)[C@H]1CC[C@H]2[C@@H]3CC[C@@H]4C[C@H](O)CC[C@]4(C)[C@H]3CC[C@]12C [TAUROLITHOCHOLIC ACID],activity at 200 µM,[4],40%
same,Activity,[5],16%
